Test results: US20010014680A1 (priority 1998, published 2001)
Structures can show the parent of a compound that is named as a salt. Each block holds one compound with its values, some of them ahead of it.

Tests used:
[1] = target: T1, human 5HT1A receptor (Homo sapiens, UniProt P08908); assay: 5-HT1A Receptor Intrinsic Activity Assay (cAMP); format: cell-based; conditions: reversal of forskolin (1 μM) stimulated cAMP in CHO cells stably transfected with human 5-HT1A receptor; RIA
T1 construct: expressed in transfected cells; host or cells: CHO cells, stably transfected
T1 sequence (P08908 1-422): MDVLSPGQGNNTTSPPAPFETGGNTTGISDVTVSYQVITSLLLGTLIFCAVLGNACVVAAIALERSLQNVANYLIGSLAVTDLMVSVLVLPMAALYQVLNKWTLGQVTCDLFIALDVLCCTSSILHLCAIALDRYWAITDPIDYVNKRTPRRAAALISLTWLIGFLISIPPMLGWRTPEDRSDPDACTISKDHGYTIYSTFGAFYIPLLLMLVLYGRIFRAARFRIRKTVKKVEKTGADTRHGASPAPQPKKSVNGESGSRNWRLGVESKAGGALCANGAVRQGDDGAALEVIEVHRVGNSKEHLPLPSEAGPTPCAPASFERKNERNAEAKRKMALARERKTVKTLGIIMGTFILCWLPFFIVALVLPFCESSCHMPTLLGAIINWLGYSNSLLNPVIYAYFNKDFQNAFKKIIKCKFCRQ
Experimental: 5-HT1A Receptor Intrinsic Activity Assay
The intrinsic activity of compounds of the present invention was established by testing the claimed compounds ability to reverse the stimulation of cyclic adenosinemonophosphate (cAMP) in CHO cells stably transfected with the human 5-HT1A receptor.
Stably transfected CHO cells were grown in DMEM containing 10% heat inactivated FBS and non-essential amino acids. The cells are plated at a density of […] per well in a 24 well plate and incubated for 2 days in a CO2 incubator. On the second day, the media is replaced with 0.5 mL treatment buffer (DMEM + 25 mM HEPES, 5 mM theophylline, 10 μM pargyline) and incubated for 10 minutes at 37° C. Wells are treated with forskolin (1 μM final concentration) followed immediately by the test compound (0.1 and 1 μM for initial screen) and incubated for an additional 10 minutes at 37° C. The reaction is terminated by removal of the media and addition of 0.5 mL ice cold assay buffer (supplied in the RIA kit). Plates are stored at −20° C. prior to assessment of cAMP formation by RIA. EC50 values are determined for the active test compounds. Compounds shown to have no agonist activities (Emax=0%) are further analyzed for their ability to reverse agonist induced activity. In separate experiments, 6 concentrations of antagonist are preincubated for 20 minutes prior to the addition of agonist and forskolin. Cells are harvested as described above. The cAMP kit is supplied by Amersham and the RIA is performed as per kit instructions, and calculations of IC50 performed by GraphPad Prism.

[2] = target: T1, human 5HT1A receptor; assay: 5-HT1A Receptor Binding Assay ([3H] 8-OH-DPAT displacement); conditions: displacement of [3H] 8-OH-DPAT (1.5 nM) in CHO cells stably transfected with human 5HT1A receptor
Experimental: 5-HT1A Receptor Binding Assay
High affinity for the serotonin 5-HT1A receptor was established by testing the claimed compound's ability to displace [^3H] 8-OH-DPAT binding in CHO cells stably transfected with the human 5HT1A receptor. Stably transfected CHO cells are grown in DMEM containing 10% heat inactivated FBS and non-essential amino acids. Cells are scraped off the plate, transferred to centrifuge tubes, and washed twice by centrifugation (2000 rpm for 10 min., 4° C.) in buffer (50 mM Tris pH 7.5). The resulting pellets are aliquoted and placed at −80° C. On the day of assay, the cells are thawed on ice and resuspended in buffer. The binding assay is performed in a 96 well microtiter plate in a total volume of 250 μL. Non-specific binding is determined in the presence of […], final ligand concentration is 1.5 nM. Following a 30 minute incubation at room temperature, the reaction is terminated by the addition of ice cold buffer and rapid filtration through a GF/B filter presoaked for 30 minutes in 0.5% PEI. Compounds are initially tested in a single point assay to determine percent inhibition at […], and Ki values are determined for the active compounds.

Compound: COc1ccccc1N1CCN(CC2CCNCC2)CC1 [Example 1, 1-(2-Methoxy-phenyl)-4-piperidin-4-ylmethyl-piperazine]
Emax [1]: 0%

Compound: COc1ccccc1N1CCN(CC2CCN(CC3CCCCC3)CC2)CC1 [Example 3]
Ki [2]: 8.4 nM
Emax [1]: 89%

Compound: COc1ccccc1N1CCN(CC2CCCNC2)CC1 (centres unmarked) [Example 6, 1-(2-Methoxy-phenyl)-4-piperidin-3-ylmethyl-piperazine]
Ki [2]: 2 nM
Emax [1]: 0%

Now from value to compound:

melting point: > 240 °C
Compound: O=C(C1CCNCC1)N1CCN(c2cccc3[nH]ccc23)CC1 (as salt: HCl) [Example 11, [4-(1H-Indol-4-yl)-piperazin-1-yl]-piperidin-4-yl-methanone]

Ki [2]: 14 nM
Emax [1]: 79%
Compound: COc1ccccc1N1CCN(CC2CCCN(Cc3ccccc3)C2)CC1 (centres unmarked) [Example 9, 1-(1-Benzyl-piperidin-3-ylmethyl)-4-(2-methoxy-phenyl)-piperazine]
